Calls of active or inactive are those of the source. The rule behind the calls is not given here.

As usually defined, the IC50 is the concentration that gives 50% inhibition. Read a high IC50 as weaker potency.

The target of the assay is Procathepsin L (Homo sapiens, UniProt P07711). In words: Inhibition of human cathepsin L.
`CC(C)(C)OC(=O)N[C@@H](Cc1c[nH]c2ccccc12)C(=O)NNC(=O)SC1CCN(c2ccccc2)C1=O` (some centres undefined): it took 110 nM to reach half-maximal inhibition (IC50).

In the case of `CC(C)(C)OC(=O)N[C@@H](Cc1c[nH]c2ccccc12)C(=O)NNC(=O)CCC(=O)N1CCCc2ccccc21`, the outcome was inactive.

`CC(C)(C)OC(=O)N[C@@H](Cc1c[nH]c2ccccc12)C(=O)NNC(=O)NCC(=O)N1CCCc2ccccc21` came in with an IC50 of 3000 nM.

`CC(C)(C)OC(=O)N[C@@H](Cc1c[nH]c2ccccc12)C(=O)NNC(=O)OCC(=O)N1CCCc2ccccc21` gave an IC50 of 7 nM.

In the case of `CCc1ccccc1NC(=O)CSC(=O)NNC(=O)[C@H](Cc1ccccc1)NC(=O)OC(C)(C)C`, the IC50 was determined as 115 nM.

In turn, `COC(=O)CSC(=O)NNC(=O)[C@H](Cc1c[nH]c2ccccc12)NC(=O)OC(C)(C)C` returned a 50% inhibitory concentration (IC50) of 201 nM.

For `CC(C)(C)OC(=O)N[C@@H](Cc1c[nH]c2ccccc12)C(=O)NNC(=O)SCC(=O)N1CCCc2ccccc21`, the IC50 stood at 41 nM.

Consider `CCc1ccccc1NC(=O)CSC(=O)NNC(=O)CCc1c[nH]c2ccccc12`, for which half-maximal inhibition (IC50) was put at 21800 nM.

For `CCc1ccccc1NC(=O)CSC(=O)NNC(=O)CNC(=O)OC(C)(C)C`, the outcome was inactive.

The values are drawn from ChEMBL document CHEMBL1145569, “Design, synthesis, and evaluation of inhibitors of cathepsin L: Exploiting a unique thiocarbazate chemotype” (Bioorg Med Chem Lett, 2008).
